From patent US20090319044A1, “Methods and Compositions for Improving the Incorporation of Orthopaedic and Orthodontic Implants” (priority 2006, published 2009)

Columns and labels:
[1] = system: MC3T3 cells; assay: Cytokine gene expression after A23187 treatment (Quantitative-RT PCR); type: cell-based; details: 1 to 6 hours after stimulation, relative to controls
Protocol: Wear particles and calcium signaling induce cytokine expression in macrophages and osteoblasts. Cytokine gene expression was measured following A23187 treatment in MC3T3 cells by Quantitative-RT PCR. RNA was isolated from the cells using an RNeasy Mini Kit (Qiagen, Valencia, Calif.), and Quantitative-RT PCR was performed using a SYBR Green master mix (Roche, Ind.).

[2] = system: RAW 264.7 mouse macrophage-like cells (osteoclast precursors); assay: Cell death assay (annexin V-FITC / propidium iodide flow cytometry); type: cell-based; details: 50 μM zoledronate, 24 hours
Protocol: MC3T3 cells, which are well-established mouse calvarial cells of osteoblastic lineage, and RAW 264.7 mouse macrophage-like cells, which are well-known to form osteoclasts, were purchased from the American Type Culture Collection and Tissue (Manassas, Va.). MC3T3 and RAW 264.7 cells were grown in Dulbecco's Modified Eagle Medium supplemented with 10% fetal bovine serum, 100 μ/mL penicillin, […] streptomycin, and 0.1% fungizone (amphotericin B). The cells were kept at 37° C. in a humidified atmosphere of 5% CO2 and 95% air.
Cell number was measured, and the cells were centrifuged and resuspended in binding buffer (A.G. Scientific, San Diego, Calif.) to a final cell density of 5×10^5 cells/mL. […] of annexin V-FITC (A.G. Scientific, San Diego, Calif.) was added to […] of cell suspension and incubated for 10 minutes. The cells were centrifuged, washed with PBS and resuspended again in […] of binding buffer. […] of 20 mg/mL propidium iodide (A.G. Scientific, San Diego, Calif.) was added to the cell suspension, and flow cytometry was performed using a FACS Calibur (Becton Dickson, Franklin Lakes, N.J.). Monoparametric cytograms of annexin V-FITC fluorescence (FL1) versus number of events were created using the CellQuest program gating for living cells and excluding dead cells on the basis of their propidium iodide uptake.

[3] = system: rodent osteolysis model (UHMWPE wear debris, femur); assay: First in vivo study: Faxitron and micro-CT imaging of osteolysis around implants; parameters: species or system rat; details: 24 weeks, vs HA-coated control
Text: (§1) More particularly, sterile ultrahigh molecular weight polyethylene (UHMWPE) wear debris particles (0.5 cc, 0.1-3 micron particle size) were introduced into the intramedullary cavity of bilateral femurs of 8 rats, which served as the control group in this example. The particles were introduced after reaming the femurs with an 18 gauge needle at the knee joint. Sterile wear debris particles were used in this example to stimulate a wear debris reaction and promote osteolysis. Hydroxyapatite-coated plastic pins and hydroxyapatite-coated titanium pins (1.5 mm×20 mm, Stryker, Kalamazoo, Mich.) were then inserted into the intramedullary canal of the right femur and left femur, respectively.
(§2) The test group, which consisted of 8 rates, also had 0.5 cc of sterile UHMWPE wear debris particles introduced into the femoral intramedullary canal after reaming with an 18 gauge needle at the knee joint.
The rats of the test and control groups were sacrificed at 24 weeks following insertion of the pins and the femurs were retrieved. Faxitron radiographs (Faxitron, Wheeling, Ill.) of the femurs taken from the test and control rats were obtained. […] The femurs with plastic pin implants (the right femurs) were imaged by micro-CT (Stratec XCT-3000, Stratec Medizintechnik GmbH, Pforzheim, Germany).

[4] = system: rodent osteolysis model (UHMWPE wear debris, femur); assay: First in vivo study: pull-out strength testing of titanium pins; parameters: species or system rat; details: 24 weeks
Text: as §1, §2
Incorporation of the implants by the host bone was evaluated by “pull-out strength testing” of the titanium pins (left femurs) (MTS 858 Bionix, MTS Systems Corporation, Minneapolis, Minn.). Such “pull-out strength testing” measures the amount of force (i.e., pull force) that must be applied to displace (or remove) the implant from the bone.

[5] = system: polyethylene particle-induced osteolysis rodent femur model; assay: Second in vivo study: dual energy X-ray absorptiometry (DXA); parameters: species or system Sprague-Dawley rats; bone area (DXA): unit not given here; details: HA-coated nail soaked in 50 μM zoledronate, 6 weeks and 6 months pooled
Text: (§3) Experimental Design and Surgical Procedure. In this example, a polyethylene particle-induced osteolysis rodent femur model was used to examine the advantages of using a HA-zoledronate composite on the implant surface for osseous integration and implant stability in the presence of UHMWPE particles. Two critical parameters were examined, namely, peri-implant bone quality (osteolysis) and osseointegration (implant stability).
All procedures involving animals were approved by the Institutional Animal Care and Use Committee in accordance with the Association for the Assessment and Accreditation of Laboratory Animal Care guidelines (Columbia University Animal Proctocol AC-AAM5306). In this example, a rodent femur intramedullary nailing model was used with UHMWPE wear debris particles instilled into the intramedullary canal after reaming the femur to stimulate a wear debris reaction. Thirty-two six-month-old adult male Sprague-Dawley rats (weight, 400-500 gm) were purchased (Charles Laboratory, Cambridge, Mass.).
(§4) The 32 rats were divided into two study groups, each composed of 16 rats. Sixteen randomly selected rats served as a control group, which received HA-coated nails. […] Eight rats in each group were sacrificed at 6 weeks following the intramedullary nailing of HA-coated implants and another 8 rats from each group were sacrificed 6 months following the surgery.
After induction of general anesthesia using ketamine (60 mg/kg) and xylazine (5 mg/kg), hair over the knee was removed with a clipper. Right and left knee regions were prepared with 70% alcohol and 1% Betadine solution. A one centimeter longitudinal skin incision was made over the anterior aspect of the distal femur. […]
(§5) In the control group, a radiolucent UHMWPE intramedullary nail, which was coated with HA, was implanted into the right distal femur in a retrograde manner, while a HA-coated titanium intramedullary nail was implanted into the left distal femur. […] Activity level, food intake, the condition of the surgical wound, and clinical signs of infection were monitored daily. […]

[6] = system: polyethylene particle-induced osteolysis rodent femur model; assay: Second in vivo study: micro-CT periprosthetic bone area; parameters: species or system Sprague-Dawley rats; details: HA-coated UHMWPE nail soaked in 50 μM zoledronate; right femora; times pooled; p<0.0001 vs control
Text: as §3
The 32 rats were divided into two study groups, each composed of 16 rats. Sixteen randomly selected rats served as a control group, which received HA-coated nails. […] Eight rats in each group were sacrificed at 6 weeks following the intramedullary nailing of HA-coated implants and another 8 rats from each group were sacrificed 6 months following the surgery. […]
as §5
Micro-computed Tomography (micro-CT). The right femura with UHMWPE pins were imaged using a quantitative CT (Stratec XCT-3000), running the XCT Series software, version 5.21 (Stratec Medizintechnik GmbH, Pforzheim, Germany). […]

[7] = system: polyethylene particle-induced osteolysis rodent femur model; assay: Second in vivo study: biomechanical pull-out testing; parameters: species or system Sprague-Dawley rats
Text: as §3, §4
After induction of general anesthesia using ketamine (60 mg/kg) and xylazine (5 mg/kg), hair over the knee was removed with a clipper. Right and left knee regions were prepared with 70% alcohol and 1% Betadine solution. A one centimeter longitudinal skin incision was made over the anterior aspect of the distal femur. A medial parapatellar approach was made to expose the intercondylar notch with the knee in flexion. An entry hole was made with a 18-gauge needle. The distal rat femora were reamed with an 18-gauge needle, and then Ceridust® UHMWPE particles (0.1 mL of 50 vol. %; 0.1 to 3 micron in size; Clariant GmbH, Germany) were introduced into the intradmedullary canal prior to implantation.
In the control group, a radiolucent UHMWPE intramedullary nail, which was coated with HA, was implanted into the right distal femur in a retrograde manner, while a HA-coated titanium intramedullary nail was implanted into the left distal femur. The joint capsule was repaired using a 2-0 Vicryl® suture (Johnson & Johnson, New Brunswick, N.J.). The skin was repaired with metal staples. Rats were allowed weight bearing as tolerated in their cages, while subcutaneous injections of buprenorphine (0.05 mg/kg) were given once a day for two post-operative days. Activity level, food intake, the condition of the surgical wound, and clinical signs of infection were monitored daily.
The purpose of using the UHMWPE nail was to minimize imaging artifacts inherent in metal implants for a more accurate analysis of dual energy x-ray absorptiometry (DXA) and microcomputed tomography (micro-CT) analyses, which are describe below. The metallic nail was used for biomechanical testing. The intramedullary nails, 1.4 mm in diameter and 20 mm in length, were custom-made for this study (Stryker, Mahwah, N.J.).
Biomechanical Testing. The left femora of both the 6-week and 6-month control and treatment groups were subjected to biomechanical testing following the imaging studies described herein. […]

[8] = HA-coated titanium nail soaked in 50 μM zoledronate, left femora, times pooled, p<0.0001 vs control

Compound | COX-2 expression [1] | TNF-alpha expression [1] | apoptosis in RAW cells [2] | osteolysis around plastic implants (micro-CT) ([3]; HA-coated plastic pins presoaked in zoledronate 15 minutes, right femur) | osteolysis around titanium implant (Faxitron radiographs) ([3]; HA-coated titanium pins presoaked in zoledronate 15 minutes, left femur) | peak force to extract the titanium pin implants ([4]; zoledronate-treated HA-coated titanium pins vs control, p<0.0001) | pullout energy ([4]; zoledronate-treated HA-coated titanium pins, p=0.0085 vs control) | bone mineral content (DXA) ([5]; p<0.0001 vs control) | bone mineral density (DXA) ([5]; p<0.0001 vs control) | bone area (DXA) ([5]; p=0.1222 vs control) | amount of bone mass in the periprosthetic area (micro-CT) [6] | increase in total energy to pull-out over control ([7]; 6-month group) | increase in total energy to pull-out over control ([7]; 6-weeks group) | average peak pullout force [7, 8] | energy required to completely pull the pin out of the bone [7, 8]
CNc1ccc2oc(C[C@H]3O[C@@]4(CC[C@H]3C)O[C@H]([C@H](C)C(=O)c3ccc[nH]3)[C@H](C)C[C@H]4C)nc2c1C(=O)O [A23187] | increase | increase |  |  |  |  |  |  |  |  |  |  |  |  | 
zoledronate |  |  | 100% | not around such implants in the test rats | not around the titanium implants in the test rats | statistically higher | 5.71±3.42 N-m | 0.417 ± 0.064 g | 0.328±0.036 g/cm^2 | 1.265±0.081 | 2.388±0.960 mm^2 | 170.7% | 542.8% | 241.0±95.1 N | 521.6±293.8 N-mm
